Experimental findings from patent publication EP0082023A2, “Thienopyrimidine derivatives, their preparation and their medical use” (SANKYO COMPANY LIMITED, priority 1981, dated 1983) are described below.

In assay [1] the test system is male mice of the ddY strain. Put plainly: Diuretic activity in mice (urine volume and sodium ion concentration). The format is in vivo. The following applies: urine collected for 2 hours after administration, increase over control group. The protocol: The animals employed in this test were male mice of the ddY strain, each having a body weight of from 26 g to 30 g. The mice were employed in groups of five for each test. Each test compound was suspended in a 0.3% carboxymethylcellulose saline solution and administered orally in the dose shown in Table 3 to the mouse. For the period of 2 hours after administration, the urine was collected and the urine volume and concentration of sodium ions were measured. […] The compounds tested were Compound No. 3 of the present invention and hydrochlorothiazide (abbreviated as "HCT").

Assay [2] has as its system platelet aggregation. In words: Inhibition of collagen-induced platelet aggregation in platelet-rich plasma. Type of assay: cell-based. The following applies: rabbit PRP, incubated 2 minutes, collagen 5 ug/ml. The protocol: The ability of various compounds of the present invention to inhibit platelet aggregation was measured using rabbit blood.
9 volumes of blood collected from male rabbit hearts and 1 volume of a 3.8% w/v aqueous solution of sodium citrate were mixed, placed in a centrifugal separator and subjected to centrifugation under 150 G for 15 minutes to give a platelet-rich-plasma (PRP). 250 pl of this PRP were placed in a cuvette and incubated for 2 minutes with a test compound at the concentration shown in Table 2. To the mixture was then added a collagen solution to a final concentration of 5 ug/ml, to induce aggregation. The aggregation was measured using an aggregometer produced by Rikadenki Co. Ltd. The inhibitory rate R' was calculated from the following formula: [formula] in which A' represents the maximum aggregation rate when only a solvent was added and B' represents the maximum aggregation rate when the test compound was added.
For comparison, the experiment was also carried out using as the test compound VK-744, of German Offenlegungsschrift No. 2,200,764, and ICI-154 of U.S. Patent Specification No. 4,146,716.

In assay [3] the test system is male mice of the ddY strain. Put plainly: Hypoglycaemic activity in mice after glucose loading. The format is in vivo. The following applies: Mus musculus, po, 0.5 h; blood sugar concentration vs positive control group; 10 mg/kg orally, 1.2 g/kg D-glucose orally 10 minutes later, blood collected 30 minutes after D-glucose; groups of 6 mice; read-out: Inhibitory rate, R%. The method, then: In this experiment, the hypoglycaemic activity of various of the compounds of the invention was measured in mice after loading a large quantity of glucose. The test animals were male mice of the ddY strain having a body weight of from 25 to 27 g. Each experiment was carried out on a group of 6 mice.
Each test compound was administered orally in an amount of 10 mg/kg to the mouse followed, 10 minutes later, by the oral administration of 1.2 g/kg of D-glucose. 30 minutes after administration of the D-glucose, blood was collected from each mouse and the blood sugar.concentration was measured using a commercially available kit ("New Blood Sugar Test", a product of Boehringer-Mannheim Yamanouchi Pharmaceutical Co. Ltd,). The inhibitory rate, R, was calculated from the following formula: [formula] in which A represents the blood sugar concentration of a positive control group and B represents the blood sugar concentration of the group to which the test compound was administered. As a control, the experiment was also carried out with: the known hypoglycaemic agent, tolbutamide; 2-(2-aminoethylamino)-4-morpholinothieno[2,3-d]pyrimidine (named "VK-744"), a compound disclosed in German Offenlegungsschrift No. 2,200,764; and 4-isopropylamino-2-piperidinothieno[2,3-d]-pyrimidine (hereinafter referred to as "ICI-154"), a compound disclosed in U.S. Patent Specification No. 4,146,716.

Regarding `Cc1csc2nc(N3CCNCC3)nc(N)c12` [Compound No. 3, 4-Amino-5-methyl-2-(1-piperazinyl)thieno[2,3-d]-pyrimidine], in assay [1] (dose 100 mg/kg orally), the “Percent increase in Na^+ conc.” value is “+51%” and the “Percent increase in Urine volume” value is reported as “+76%”. Also, the “Inhibitory rate, R'%” value in assay [2] (concentration 10^-5 g/ml) stood at 82.4%. Also, the inhibition in vivo at 10 mg/kg in assay [3] came to 32.4%. On to `CCc1cc2c(N)nc(N3CCNCC3)nc2s1` [Compound No. 8, 4-Amino-6-ethyl-2-(1-piperazinyl)thieno[2,3-d]-pyrimidine], for which the inhibition in vivo at 10 mg/kg in assay [3] was 34%. Still for that read-out and setting: to `CNc1nc(N2CCNCC2)nc2scc(C)c12` [Compound No. 16, 5-Methyl-4-methylamino-2-(1-piperazinyl)thieno[2,3-d]-pyrimidine] belongs 43.9%. On the same count and under the same terms, next, `CCc1cc2c(NC)nc(N3CCNCC3)nc2s1` [Compound No. 21, 6-Ethyl-4-methylamino-2-(1-piperazinyl)thieno[2,3-d]-pyrimidine]: 20%; `CCc1cc2c(N(CC)CC)nc(N3CCNCC3)nc2s1` [Compound No. 39, 4-Diethylamino-6-ethyl-2-(1-piperazinyl)thieno[2,3-d]-pyrimidine]: 19.4%. For the molecule `CCc1cc2c(NCCO)nc(N3CCNCC3)nc2s1` [Compound No. 54, 6-Ethyl-4-(2-hydroxyethylamino)-2-(1-piperazinyl)-thieno[2,3-d]pyrimidine], the “Inhibitory rate, R'%” value in assay [2] (concentration 10^-6 g/ml) turned out to be 66.1%. For the molecule `CCc1cc2c(NCCN)nc(N3CCNCC3)nc2s1` [Compound No. 66, 4-(2-Aminoethylamino)-6-ethyl-2-(1-piperazinyl)-thieno[2,3-d]pyrimidine], in assay [2] (concentration 3 x 10^-5 g/ml), the “Inhibitory rate, R'%” value is listed as 100%. The inhibition in vivo at 10 mg/kg in assay [3] stood at 32.9%. Taken in the same sequence, the figures for `CCc1cc2c(N)nc(N3CCN(C)CC3)nc2s1` [Compound No. 73, 4-Amino-6-ethyl-2-(4-methyl-1-piperazinyl)thieno-[2,3-d]pyrimidine] were 100% and 34.1%. For the molecule `CCc1cc2c(N)nc(N3CCN(C=O)CC3)nc2s1` [Compound No. 84, 4-Amino-6-ethyl-2-(4-formyl-1-piperazinyl)thieno-[2,3-d]pyrimidine], the inhibition in vivo at 10 mg/kg in assay [3] stood at 39.3%. `CCc1cc2c(NC)nc(N3CCN(C=O)CC3)nc2s1` [Compound No. 99, 6-Ethyl-2-(4-formyl-1-piperazinyl)-4-methylaminothieno-[2,3-d]pyrimidine]: the inhibition in vivo at 10 mg/kg in assay [3] worked out at 22.1%. Turning to `OCCN(CCO)c1nc(N2CCNCC2)nc2sc3c(c12)CCCC3` [Compound No. 197, 4-Bis(2-hydroxyethyl)amino-2-(1-piperazinyl)-5,6-tetramethylenethieno[2,3-d]pyrimidine], the “Inhibitory rate, R'%” value in assay [2] (concentration 10^-5 g/ml) is listed as 87%.

For `NS(=O)(=O)c1cc2c(cc1Cl)NCNS2(=O)=O` [HCT, hydrochlorothiazide, reference compound], in assay [1] (dose 30 mg/kg orally), the “Percent increase in Na^+ conc.” value is “+93%” and the “Percent increase in Urine volume” value is “+43%”. For the molecule `CC(C)Nc1nc(N2CCCCC2)nc2sccc12` [ICI-154, 4-isopropylamino-2-piperidinothieno[2,3-d]-pyrimidine, reference compound], the “Inhibitory rate, R'%” value in assay [2] (concentration 10^-4 g/ml) was < 50%. Also, the inhibition in vivo at 10 mg/kg in assay [3] came out at 11%.

In the case of `NCCNc1nc(N2CCOCC2)c2ccsc2n1` [VK-744, 2-(2-aminoethylamino)-4-morpholinothieno[2,3-d]pyrimidine, reference compound], the inhibition in vivo at 10 mg/kg in assay [3] was 19%.

With `CNc1nc(N2CCNCC2)nc2sccc12` [compound 49, 4-Methylamino-2-(1-piperazinyl)thieno[2,3-d]pyrimidine], the inhibition in vivo at 10 mg/kg in assay [3] was 32%. `CCc1cc2c(N(CCO)CCO)nc(N3CCNCC3)nc2s1` [compound 62, 4-Bis(2-hydroxyethyl)amino-6-ethyl-2-(1-piperazinyl)-thieno[2,3-d]pyrimidine]: the “Inhibitory rate, R'%” value in assay [2] (concentration 10^-6 g/ml) amounted to 65.3%. Take `CCCCNC(=O)NS(=O)(=O)c1ccc(C)cc1` [tolbutamide, reference compound]: the inhibition in vivo at 10 mg/kg in assay [3] turned out to be 2.8%.
